Compound in one experiment: NC(=O)CCCCC1CCSS1 [lipoamide]
Briefly: thermal stability z-score vs DMSO; higher = more thermally stabilized by treatment. Particulars: HeLa, lipoamide concentration 100 µM. As for the experimental part:
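Cellular thermal proteome profiling in HeLa cells. Cells were treated with 100 µM lipoamide for 1 h, with or without 1 mM arsenate for a further 1 h, then heated to ten temperatures (37-66.3 °C), and soluble protein was quantified by TMT mass spectrometry relative to 0.1% DMSO controls. The thermal stability score (sum of log2 fold changes minus the abundance score) was transformed to a z-score; mean of n = 3 experiments.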

Compound in another experiment: O=[As]([O-])(O)O.[K+] [potassium arsenate]
The description is as above. Particulars: HeLa; arsenate concentration 1 mM. As for the experimental part: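 Cellular thermal proteome profiling in HeLa cells treated with 1 mM arsenate for 1 h (DMSO pretreatment), heated to ten temperatures (37-66.3 °C). Soluble protein was quantified by TMT mass spectrometry relative to DMSO controls; the thermal stability score was transformed to a z-score; mean of n = 3 experiments.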

[1] abbreviates: arsenate co-treatment: 1 mM arsenate 1 h.
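Also: each temperature applied for 3 min, abundance score taken as mean log2 fold change at the two lowest temperatures, z-score obtained by mean subtraction and division by SD.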

Sequence of UniProt Q9NP74 (Q9NP74 whole entry): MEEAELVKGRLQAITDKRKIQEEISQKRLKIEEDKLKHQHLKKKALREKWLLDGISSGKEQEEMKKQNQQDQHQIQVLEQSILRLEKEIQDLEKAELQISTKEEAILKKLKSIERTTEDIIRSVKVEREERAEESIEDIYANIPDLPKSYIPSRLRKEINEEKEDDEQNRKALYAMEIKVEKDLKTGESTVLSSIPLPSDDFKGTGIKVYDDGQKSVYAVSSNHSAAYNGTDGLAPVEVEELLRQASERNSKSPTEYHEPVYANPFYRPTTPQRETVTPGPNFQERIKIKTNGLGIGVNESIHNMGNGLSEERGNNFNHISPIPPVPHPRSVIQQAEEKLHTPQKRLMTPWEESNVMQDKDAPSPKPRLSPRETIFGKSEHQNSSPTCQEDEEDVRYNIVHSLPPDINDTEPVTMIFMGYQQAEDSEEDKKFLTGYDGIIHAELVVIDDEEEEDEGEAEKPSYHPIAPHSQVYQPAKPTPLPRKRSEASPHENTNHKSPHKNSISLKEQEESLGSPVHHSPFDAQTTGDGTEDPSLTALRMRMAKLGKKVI
Sequence of UniProt Q00587 (Q00587 whole entry): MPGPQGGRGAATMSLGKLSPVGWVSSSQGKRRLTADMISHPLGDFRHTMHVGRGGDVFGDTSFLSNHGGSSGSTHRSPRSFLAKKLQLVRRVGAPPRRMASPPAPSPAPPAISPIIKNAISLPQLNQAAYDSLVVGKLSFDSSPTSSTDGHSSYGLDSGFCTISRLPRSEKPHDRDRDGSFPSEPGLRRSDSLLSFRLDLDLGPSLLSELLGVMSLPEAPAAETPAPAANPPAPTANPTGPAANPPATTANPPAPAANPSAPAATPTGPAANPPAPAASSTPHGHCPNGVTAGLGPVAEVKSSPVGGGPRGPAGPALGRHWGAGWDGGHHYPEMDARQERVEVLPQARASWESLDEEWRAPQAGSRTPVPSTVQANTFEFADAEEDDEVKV
Sequence of UniProt Q9Y485 (Q9Y485 whole entry): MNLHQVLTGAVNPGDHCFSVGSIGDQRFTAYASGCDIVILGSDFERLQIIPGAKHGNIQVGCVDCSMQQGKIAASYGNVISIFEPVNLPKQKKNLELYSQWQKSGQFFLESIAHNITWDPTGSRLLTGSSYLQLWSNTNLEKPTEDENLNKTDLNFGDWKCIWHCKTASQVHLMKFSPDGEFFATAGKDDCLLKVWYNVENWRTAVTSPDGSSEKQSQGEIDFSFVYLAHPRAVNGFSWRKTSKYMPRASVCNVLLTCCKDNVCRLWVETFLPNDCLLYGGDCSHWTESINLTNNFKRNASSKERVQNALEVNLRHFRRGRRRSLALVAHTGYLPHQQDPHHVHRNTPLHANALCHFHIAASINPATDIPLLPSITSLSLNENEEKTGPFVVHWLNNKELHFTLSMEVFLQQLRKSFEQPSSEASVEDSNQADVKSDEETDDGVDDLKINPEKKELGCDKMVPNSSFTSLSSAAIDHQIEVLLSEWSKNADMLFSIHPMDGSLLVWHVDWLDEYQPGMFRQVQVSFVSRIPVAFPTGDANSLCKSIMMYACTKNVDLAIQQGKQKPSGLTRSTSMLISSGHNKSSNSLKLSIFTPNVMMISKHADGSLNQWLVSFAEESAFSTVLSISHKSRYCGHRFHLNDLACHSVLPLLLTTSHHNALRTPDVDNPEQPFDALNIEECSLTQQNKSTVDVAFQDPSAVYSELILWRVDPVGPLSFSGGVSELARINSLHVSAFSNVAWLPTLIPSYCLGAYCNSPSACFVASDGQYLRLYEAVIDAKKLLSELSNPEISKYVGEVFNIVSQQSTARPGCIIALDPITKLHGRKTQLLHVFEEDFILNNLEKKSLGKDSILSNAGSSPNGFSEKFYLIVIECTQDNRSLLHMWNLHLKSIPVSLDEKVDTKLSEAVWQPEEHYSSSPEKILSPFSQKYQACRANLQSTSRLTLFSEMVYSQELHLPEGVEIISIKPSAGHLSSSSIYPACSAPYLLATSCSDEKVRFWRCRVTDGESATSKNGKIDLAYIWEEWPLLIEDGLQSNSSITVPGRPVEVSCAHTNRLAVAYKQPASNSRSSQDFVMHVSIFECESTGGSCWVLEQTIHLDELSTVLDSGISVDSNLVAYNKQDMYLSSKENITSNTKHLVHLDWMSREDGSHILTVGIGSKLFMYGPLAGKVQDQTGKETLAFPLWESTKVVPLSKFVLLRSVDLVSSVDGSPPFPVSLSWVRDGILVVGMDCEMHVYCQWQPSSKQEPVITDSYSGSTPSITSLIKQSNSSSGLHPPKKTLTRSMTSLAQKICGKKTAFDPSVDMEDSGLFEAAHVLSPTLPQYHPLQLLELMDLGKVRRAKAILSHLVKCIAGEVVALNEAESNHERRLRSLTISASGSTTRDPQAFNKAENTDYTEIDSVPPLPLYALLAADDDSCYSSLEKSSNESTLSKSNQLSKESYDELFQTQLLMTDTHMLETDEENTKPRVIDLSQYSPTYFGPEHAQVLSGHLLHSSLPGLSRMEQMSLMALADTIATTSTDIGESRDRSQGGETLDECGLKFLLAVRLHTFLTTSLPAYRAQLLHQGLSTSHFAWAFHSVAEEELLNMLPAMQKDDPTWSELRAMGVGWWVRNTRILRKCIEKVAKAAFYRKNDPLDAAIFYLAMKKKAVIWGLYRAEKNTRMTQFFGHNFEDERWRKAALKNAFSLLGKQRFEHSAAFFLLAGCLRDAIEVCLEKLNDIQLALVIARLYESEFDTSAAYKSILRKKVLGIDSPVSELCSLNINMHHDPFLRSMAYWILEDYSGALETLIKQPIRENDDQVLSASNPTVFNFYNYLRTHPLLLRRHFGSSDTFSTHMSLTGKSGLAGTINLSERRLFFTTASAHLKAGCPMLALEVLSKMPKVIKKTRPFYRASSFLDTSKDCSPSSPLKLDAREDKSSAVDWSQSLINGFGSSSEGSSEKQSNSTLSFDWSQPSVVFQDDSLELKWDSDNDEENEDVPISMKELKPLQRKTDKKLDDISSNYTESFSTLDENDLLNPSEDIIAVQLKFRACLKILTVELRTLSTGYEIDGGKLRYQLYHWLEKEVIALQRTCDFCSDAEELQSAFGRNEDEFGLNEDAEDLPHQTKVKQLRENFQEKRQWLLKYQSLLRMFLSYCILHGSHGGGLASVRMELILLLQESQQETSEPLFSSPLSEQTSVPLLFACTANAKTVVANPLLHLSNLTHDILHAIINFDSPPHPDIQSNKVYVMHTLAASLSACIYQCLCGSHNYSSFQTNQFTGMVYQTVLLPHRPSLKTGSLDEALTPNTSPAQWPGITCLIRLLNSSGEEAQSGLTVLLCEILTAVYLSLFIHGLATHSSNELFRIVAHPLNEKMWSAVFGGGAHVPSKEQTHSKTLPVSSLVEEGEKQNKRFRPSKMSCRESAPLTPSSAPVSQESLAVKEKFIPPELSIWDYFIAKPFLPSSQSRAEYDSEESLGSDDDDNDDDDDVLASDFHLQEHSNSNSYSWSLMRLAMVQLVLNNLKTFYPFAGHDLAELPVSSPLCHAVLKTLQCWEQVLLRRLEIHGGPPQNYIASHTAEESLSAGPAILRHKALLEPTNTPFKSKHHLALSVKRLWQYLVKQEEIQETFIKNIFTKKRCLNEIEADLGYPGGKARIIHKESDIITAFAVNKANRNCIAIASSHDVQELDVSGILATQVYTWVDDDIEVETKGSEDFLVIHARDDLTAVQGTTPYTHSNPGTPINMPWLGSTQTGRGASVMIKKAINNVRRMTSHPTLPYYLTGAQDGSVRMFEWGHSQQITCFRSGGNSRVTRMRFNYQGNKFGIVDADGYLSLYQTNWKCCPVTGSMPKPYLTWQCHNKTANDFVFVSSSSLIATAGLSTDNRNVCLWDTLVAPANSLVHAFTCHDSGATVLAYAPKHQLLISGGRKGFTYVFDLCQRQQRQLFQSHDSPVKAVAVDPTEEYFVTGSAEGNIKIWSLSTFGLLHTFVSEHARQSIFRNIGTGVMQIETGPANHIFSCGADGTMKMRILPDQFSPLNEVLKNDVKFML
Sequence of UniProt Q9BYV8 (Q9BYV8 whole entry): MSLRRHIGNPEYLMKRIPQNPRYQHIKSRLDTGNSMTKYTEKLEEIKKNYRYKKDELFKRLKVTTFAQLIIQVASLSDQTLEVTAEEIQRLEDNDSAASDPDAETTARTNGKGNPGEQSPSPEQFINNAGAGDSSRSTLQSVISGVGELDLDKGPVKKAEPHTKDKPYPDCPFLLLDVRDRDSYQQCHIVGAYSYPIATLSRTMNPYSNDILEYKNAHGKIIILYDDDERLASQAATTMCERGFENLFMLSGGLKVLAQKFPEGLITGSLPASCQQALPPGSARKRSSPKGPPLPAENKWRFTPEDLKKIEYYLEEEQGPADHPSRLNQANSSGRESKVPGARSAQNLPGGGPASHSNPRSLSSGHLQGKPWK
Sequence of UniProt Q9BUB7 (Q9BUB7 whole entry): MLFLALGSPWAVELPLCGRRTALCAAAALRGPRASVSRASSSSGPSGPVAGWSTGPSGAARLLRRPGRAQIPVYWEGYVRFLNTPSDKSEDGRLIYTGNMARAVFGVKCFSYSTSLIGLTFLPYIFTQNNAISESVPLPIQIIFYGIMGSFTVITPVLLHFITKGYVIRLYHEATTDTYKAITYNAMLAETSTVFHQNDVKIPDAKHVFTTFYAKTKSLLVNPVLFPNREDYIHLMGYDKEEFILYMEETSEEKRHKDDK
Sequence of UniProt P21953 (P21953 whole entry): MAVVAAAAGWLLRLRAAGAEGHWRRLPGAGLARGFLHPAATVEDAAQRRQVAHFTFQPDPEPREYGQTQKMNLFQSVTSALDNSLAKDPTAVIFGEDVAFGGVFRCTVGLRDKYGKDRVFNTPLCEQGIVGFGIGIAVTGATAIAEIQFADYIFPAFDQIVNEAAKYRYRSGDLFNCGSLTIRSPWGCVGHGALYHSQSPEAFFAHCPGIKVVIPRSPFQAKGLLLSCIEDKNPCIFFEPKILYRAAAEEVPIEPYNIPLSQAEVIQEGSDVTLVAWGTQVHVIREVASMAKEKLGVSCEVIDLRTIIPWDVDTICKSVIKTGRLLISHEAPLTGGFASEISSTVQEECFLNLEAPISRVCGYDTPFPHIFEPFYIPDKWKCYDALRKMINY

For the target RPS7 (UniProt P62081), the thermal stability z-score in the experiment with lipoamide (setting [1]) is 0.514; with lipoamide (arsenate co-treatment: none) it was 0.322; with potassium arsenate, -0.493.

Regarding TMEM70 (UniProt Q9BUB7), the thermal stability z-score was 0.461 with lipoamide (setting [1]), -0.347 in the experiment with lipoamide (arsenate co-treatment: none) and 0.259 with potassium arsenate.

DNAJC30 (UniProt Q96LL9): the thermal stability z-score in the experiment with lipoamide (setting [1]) was -0.154; in the experiment with lipoamide (arsenate co-treatment: none), -0.0708; with potassium arsenate it was 0.0918.

Take STX2 (UniProt P32856): the thermal stability z-score with lipoamide (setting [1]) was 0.221; in the experiment with lipoamide (arsenate co-treatment: none), -0.18; in the experiment with potassium arsenate, -0.135.

For the target POLE (UniProt Q07864), the thermal stability z-score with lipoamide (setting [1]) was -0.0751; with lipoamide (arsenate co-treatment: none) it was -0.113; with potassium arsenate it was -0.553.

In the case of CDC42EP1 (UniProt Q00587), the thermal stability z-score was -0.844 with lipoamide (setting [1]), -0.776 in the experiment with lipoamide (arsenate co-treatment: none) and 0.213 in the experiment with potassium arsenate.

For DDX6 (UniProt P26196), the thermal stability z-score turned out to be 0.414 with lipoamide (setting [1]), 0.53 with lipoamide (arsenate co-treatment: none) and 1.01 in the experiment with potassium arsenate.

For the target PALMD (UniProt Q9NP74), the figures for the thermal stability z-score with lipoamide (setting [1]), with lipoamide (arsenate co-treatment: none) and with potassium arsenate were 1.1, 0.987 and 1.81, respectively.

On to DPP7 (UniProt Q9UHL4), for which the thermal stability z-score with lipoamide (setting [1]) is 0.246; in the experiment with lipoamide (arsenate co-treatment: none), 0.304; in the experiment with potassium arsenate it was -0.0217.

As to ISCA1 (UniProt Q9BUE6), the thermal stability z-score with lipoamide (setting [1]) is -0.00815; with lipoamide (arsenate co-treatment: none) it was 0.577; in the experiment with potassium arsenate it was 0.178.

For RALA (UniProt P11233), the thermal stability z-score is 0.107 with lipoamide (setting [1]), -0.0183 with lipoamide (arsenate co-treatment: none) and -0.459 with potassium arsenate.

Consider HDAC1 (UniProt Q13547), for which the thermal stability z-score with lipoamide (arsenate co-treatment: none) is 3.56; with potassium arsenate it was -0.601.

On to MDN1 (UniProt Q9NU22), for which the thermal stability z-score with lipoamide (setting [1]) was determined as 0.0494; with lipoamide (arsenate co-treatment: none), 0.0439; with potassium arsenate, 0.0865.

Consider CEP41 (UniProt Q9BYV8), for which the thermal stability z-score with lipoamide (setting [1]) was -0.0855; with lipoamide (arsenate co-treatment: none), -0.44; with potassium arsenate, -0.106.

In the case of ARMC6 (UniProt Q6NXE6), the thermal stability z-score was -0.546 in the experiment with lipoamide (setting [1]), -0.743 with lipoamide (arsenate co-treatment: none) and 1.37 with potassium arsenate.

As to ILK (UniProt Q13418), the thermal stability z-score with lipoamide (setting [1]) is 0.201; with lipoamide (arsenate co-treatment: none) it was -0.00153; with potassium arsenate, 0.129.

Consider CTBP2 (UniProt P56545), for which the figures for the thermal stability z-score in the experiment with lipoamide (setting [1]), with lipoamide (arsenate co-treatment: none) and with potassium arsenate were 0.985, -0.0596 and 0.448, respectively.

With PTDSS1 (UniProt P48651), the thermal stability z-score in the experiment with lipoamide (setting [1]) was -1.63; with lipoamide (arsenate co-treatment: none) it was -1.23; in the experiment with potassium arsenate it was -0.375.

Consider DMXL1 (UniProt Q9Y485), for which the thermal stability z-score is 0.485 in the experiment with lipoamide (setting [1]), 0.00841 with lipoamide (arsenate co-treatment: none) and -0.0177 with potassium arsenate.

Consider HSPA5 (UniProt P11021), for which the thermal stability z-score with lipoamide (setting [1]) was -2.56; with lipoamide (arsenate co-treatment: none), -1.9; with potassium arsenate, 0.434.

As for NABP2 (UniProt Q9BQ15), the values for the thermal stability z-score with lipoamide (setting [1]), with lipoamide (arsenate co-treatment: none) and in the experiment with potassium arsenate were -0.423, -0.174 and -0.112, respectively.

As for BCKDHB (UniProt P21953), the thermal stability z-score in the experiment with lipoamide (setting [1]) was 0.134; in the experiment with lipoamide (arsenate co-treatment: none), 0.149; with potassium arsenate it was 1.11.

With ME1 (UniProt P48163), the thermal stability z-score with lipoamide (setting [1]) was 0.408; in the experiment with lipoamide (arsenate co-treatment: none), 0.575; with potassium arsenate, -0.207.

In the case of TMEM56 (UniProt Q96MV1), the thermal stability z-score with lipoamide (setting [1]) turned out to be 0.138; with lipoamide (arsenate co-treatment: none) it was 1.15; with potassium arsenate, 0.953.

The values are drawn from the supplement of paper PMC12463676, “Small-molecule dissolution of stress granules by redox modulation benefits ALS models” (Nature Chemical Biology, 2025).
